The text below walks through data of US9359308B2, “Pyrazine kinase inhibitors” (Portola Pharmaceuticals, Inc., priority 2011, dated 2016).

Some results are limits rather than exact numbers.

Broadly, the IC50 is the concentration needed to halve the response being measured.

The test has as its target T1, full length active recombinant SYK enzyme (Homo sapiens, UniProt P43405).
T1 construct: full length active recombinant SYK enzyme (Millipore, Calif.); purchased Millipore
Description: Inhibition of Syk tyrosine phosphorylation activity (LANCE TR-FRET kinase assay). In kind it is biochemical. The settings on record: activity in the Syk assays, class symbols. In outline:
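1 nM full-length active recombinant SYK phosphorylated 550 nM biotin-DEEDYESP-OH with 100 μM ATP in 50 mM Tris pH 7.5, 5 mM MgCl2, 1 mM DTT and 3% DMSO for 1 h at room temperature. After EDTA quench, Eu-anti-phosphotyrosine/SA-APC TR-FRET was read after 1 h. IC50s came from non-linear regression.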
Background: In TR-FRET formats the signal depends on donor and acceptor labels being close together.
As for `NC(=O)c1ncc(N[C@@H]2CCCC(F)(F)[C@@H]2N)nc1Nc1ccc(C2CC2)nc1` [Example 345, 5-((1R,2R)-2-amino-3,3-difluorocyclohexylamino)-3-(6-cyclopropylpyridin-3-ylamino)pyrazine-2-carboxamide], the IC50 was in the range of 0.01 to 0.1 µM.

Consider `CC[C@@H](Nc1cnc(C(N)=O)c(Nc2cc(C)nc(C)c2)n1)C(N)=O` [Example 179, (R)-5-(1-amino-1-oxobutan-2-ylamino)-3-(2,6-dimethylpyridin-4-ylamino)pyrazine-2-carboxamide], for which the half-maximal inhibitory concentration (IC50) was 0.01 to 0.1 µM. Next, `NC(=O)c1ncc(N[C@@H]2CCCC[C@@H]2N)nc1Nc1cccc(C(=O)N2CCC2)c1` [Example 307, 5-((1R,2S)-2-aminocyclohexylamino)-3-(3-(azetidine-1-carbonyl)phenylamino)pyrazine-2-carboxamide]: 0.01 to 0.1 µM. Consider `CC(C)C[C@@H](Nc1cnc(C(N)=O)c(Nc2cncc(F)c2)n1)C(N)=O` [Example 70, (R)-5-(1-amino-4-methyl-1-oxopentan-2-ylamino)-3-(5-fluoropyridin-3-ylamino)pyrazine-2-carboxamide], for which the IC50 is 0.01 to 0.1 µM. Next, `NC(=O)c1ncc(N[C@@H]2CCCC[C@@H]2N)nc1Nc1cc(N2CCOCC2)cc(-n2cccn2)c1` [Example 431, 5-(((1R,2S)-2-aminocyclohexyl)amino)-3-((3-morpholino-5-(1H-pyrazol-1-yl)phenyl)amino)pyrazine-2-carboxamide]: 0.001 to 0.01 µM; `NC(=O)c1ncc(NC2CCC(N)CC2)nc1Nc1cccc(-n2nccn2)c1` (centres unmarked) [Example 188, 3-(3-(2H-1,2,3-triazol-2-yl)phenylamino)-5-((1r,4r)-4-aminocyclohexylamino)pyrazine-2-carboxamide]: 0.001 to 0.01 µM; `NC(=O)c1ncc(N[C@@H]2CCCC[C@@H]2N)nc1Nc1cc(F)c2ncccc2c1` [Example 205, 5-((1R,2S)-2-aminocyclohexylamino)-3-(8-fluoroquinolin-6-ylamino)pyrazine-2-carboxamide]: below 0.001 µM.

In the case of `CC[C@@H](Nc1cnc(C(N)=O)c(Nc2ccc(N(C)C(C)=O)cc2)n1)C(N)=O` [Example 161, (R)-5-(1-amino-1-oxobutan-2-ylamino)-3-(4-(N-methylacetamido)phenylamino)pyrazine-2-carboxamide], the 50% inhibitory concentration (IC50) was in the range of 0.1 to 1 µM.

Consider `NC(=O)c1ncc(NC[C@@H](N)CC(F)F)nc1Nc1cccc(-c2ncccn2)c1` [Example 176, (S)-5-(2-amino-4,4-difluorobutylamino)-3-(3-(pyrimidin-2-yl)phenylamino)pyrazine-2-carboxamide], for which the 50% inhibitory concentration (IC50) is 0.01 to 0.1 µM.

For `CC(C)[C@@H](Nc1cnc(C(N)=O)c(Nc2cnc3ccncc3c2)n1)C(N)=O` [Example 194, (R)-3-(1,6-naphthyridin-3-ylamino)-5-(1-amino-3-methyl-1-oxobutan-2-ylamino)pyrazine-2-carboxamide], the IC50 fell in the range of 0.001 to 0.01 µM. To `CC[C@@H](Nc1cnc(C(N)=O)c(Nc2snc(C)c2I)n1)C(N)=O` [Example 133, (R)-5-((1-amino-1-oxobutan-2-yl)amino)-3-((4-iodo-3-methylisothiazol-5-yl)amino)pyrazine-2-carboxamide] belongs 0.01 to 0.1 µM; to `CC(C)c1cc(Nc2nc(N[C@H](C)C(N)=O)cnc2C(N)=O)sn1` [Example 241, (R)-5-(1-amino-1-oxopropan-2-ylamino)-3-(3-isopropylisothiazol-5-ylamino)pyrazine-2-carboxamide], 0.001 to 0.01 µM.

In the case of `CC[C@@H](Nc1cnc(C(N)=O)c(Nc2ccc3nc(N(C)C)oc3c2)n1)C(N)=O` [Example 318, (R)-5-(1-amino-1-oxobutan-2-ylamino)-3-(2-(dimethylamino)benzo[d]oxazol-6-ylamino)pyrazine-2-carboxamide], the 50% inhibitory concentration (IC50) fell in the range of 0.01 to 0.1 µM. Next, `COC[C@@H](Nc1cnc(C(N)=O)c(Nc2cc(C)ns2)n1)C(N)=O` [Example 402, (R)-5-(1-amino-3-methoxy-1-oxopropan-2-ylamino)-3-(3-methylisothiazol-5-ylamino)pyrazine-2-carboxamide]: 0.01 to 0.1 µM. Next, `NC(=O)c1ncc(N[C@H](Cc2cccs2)C(N)=O)nc1Nc1ccc2ncccc2c1` [Example 32, (R)-5-(1-amino-1-oxo-3-(thiophen-2-yl)propan-2-ylamino)-3-(quinolin-6-ylamino)pyrazine-2-carboxamide]: below 0.001 µM; `CC(C)C[C@@H](Nc1cnc(C(N)=O)c(Nc2cnc3ccccc3c2)n1)C(N)=O` [Example 1, (R)-5-(1-amino-4-methyl-1-oxopentan-2-ylamino)-3-(quinolin-3-ylamino)pyrazine-2-carboxamide]: 0.001 to 0.01 µM. Next, `NC(=O)c1ncc(N[C@@H]2CCCC[C@@H]2N)nc1Nc1csc2ncccc12` [Example 428, 5-(((1R,2S)-2-aminocyclohexyl)amino)-3-(thieno[2,3-b]pyridin-3-ylamino)pyrazine-2-carboxamide]: below 0.001 µM; `CC(C)C[C@@H](Nc1cnc(C(N)=O)c(Nc2cnc3cccnc3c2)n1)C(N)=O` [Example 407, (R)-3-(1,5-naphthyridin-3-ylamino)-5-(1-amino-4-methyl-1-oxopentan-2-ylamino)pyrazine-2-carboxamide]: 0.001 to 0.01 µM; `NC(=O)c1ncc(N[C@H]2CC[C@@H](N)CC2)nc1Nc1cnc2ccccc2c1` [Example 185, 5-((1s,4s)-4-aminocyclohexylamino)-3-(quinolin-3-ylamino)pyrazine-2-carboxamide]: 0.01 to 0.1 µM. Take `NC(=O)c1ncc(N[C@@H]2CCCC[C@@H]2N)nc1Nc1cncc(-c2ncccn2)c1` [Example 422]: the IC50 was 0.001 to 0.01 µM. To `NC(=O)c1ncc(N[C@@H]2CCCC(F)(F)[C@@H]2N)nc1Nc1ccnc2ccccc12` [Example 366, 5-((1R,2R)-2-amino-3,3-difluorocyclohexylamino)-3-(quinolin-4-ylamino)pyrazine-2-carboxamide] belongs 0.01 to 0.1 µM. Next, `CC[C@@H](Nc1cnc(C(N)=O)c(Nc2cnn3ccccc23)n1)C(N)=O` [Example 421, (R)-5-((1-amino-1-oxobutan-2-yl)amino)-3-(pyrazolo[1,5-a]pyridin-3-ylamino)pyrazine-2-carboxamide]: 0.001 to 0.01 µM; `CC[C@@H](Nc1cnc(C(N)=O)c(Nc2ccc3cccnc3c2)n1)C(N)=O` [Example 376, (R)-5-(1-amino-1-oxobutan-2-ylamino)-3-(quinolin-7-ylamino)pyrazine-2-carboxamide]: 0.001 to 0.01 µM. Next, `CC(=O)N1CCN(c2ccc(Nc3nc(NC4CC4)cnc3C(N)=O)cc2)CC1` [Example 59, 3-(4-(4-acetylpiperazin-1-yl)phenylamino)-5-(cyclopropylamino)pyrazine-2-carboxamide]: 0.1 to 1 µM; `NC(=O)c1ncc(N[C@@H]2CCCC[C@@H]2N)nc1Nc1ccc(N2CCCC2)c(C(=O)N2CCCC2)c1` [Example 285, 5-((1R,2S)-2-aminocyclohexylamino)-3-(4-(pyrrolidin-1-yl)-3-(pyrrolidine-1-carbonyl)phenylamino)pyrazine-2-carboxamide]: 0.1 to 1 µM. Consider `CC[C@@H](Nc1cnc(C(N)=O)c(Nc2ccc(C(=O)N3CC(C#N)C3)nc2)n1)C(N)=O` [Example 329, (R)-5-(1-amino-1-oxobutan-2-ylamino)-3-(6-(3-cyanoazetidine-1-carbonyl)pyridin-3-ylamino)pyrazine-2-carboxamide], for which the IC50 lay in the range of 0.001 to 0.01 µM. Next, `NC(=O)c1ncc(N[C@@H]2CCCC[C@@H]2N)nc1N[C@H]1COc2ccccc2C1` [Example 415, 5-(((1R,2S)-2-aminocyclohexyl)amino)-3-((R)-chroman-3-ylamino)pyrazine-2-carboxamide]: 0.01 to 0.1 µM; `Cc1ccc(Nc2nc(N[C@@H]3CCNC3)cnc2C(N)=O)cc1` [Example 112, (R)-5-(pyrrolidin-3-ylamino)-3-(p-tolylamino)pyrazine-2-carboxamide]: 0.01 to 0.1 µM; `Cc1cc(Nc2nc(N[C@H](CC3CC3)C(N)=O)cnc2C(N)=O)c[n+]([O-])c1` [Example 100, (R)-3-(6-(1-amino-3-cyclopropyl-1-oxopropan-2-ylamino)-3-carbamoylpyrazin-2-ylamino)-5-methylpyridine 1-oxide]: 0.01 to 0.1 µM. Next, `Cc1cc(Nc2nc(N[C@H](CC[S+](C)[O-])C(N)=O)cnc2C(N)=O)sn1` (stereo partly drawn) [Example 399, 5-((2R)-1-amino-4-(methylsulfinyl)-1-oxobutan-2-ylamino)-3-(3-methylisothiazol-5-ylamino)pyrazine-2-carboxamide]: 0.1 to 1 µM; `NC(=O)c1ncc(N[C@@H]2CCCC[C@@H]2N)nc1Nc1cncnc1` [Example 303, 5-((1R,2S)-2-aminocyclohexylamino)-3-(pyrimidin-5-ylamino)pyrazine-2-carboxamide]: 0.01 to 0.1 µM. Next, `CCc1c(C)nsc1Nc1nc(N[C@@H]2CCCC[C@@H]2N)cnc1C(N)=O` [Example 130, 5-(((1R,2S)-2-aminocyclohexyl)amino)-3-((4-ethyl-3-methylisothiazol-5-yl)amino)pyrazine-2-carboxamide]: 0.001 to 0.01 µM. Take `Cn1ccc2cc(Nc3nc(N[C@H](CC4CC4)C(N)=O)cnc3C(N)=O)ccc21` [Example 396, (R)-5-(1-amino-3-cyclopropyl-1-oxopropan-2-ylamino)-3-(1-methyl-1H-indol-5-ylamino)pyrazine-2-carboxamide]: the IC50 lay in the range of 0.001 to 0.01 µM. To `CC(C)(C)[C@@H](Nc1cnc(C(N)=O)c(Nc2cc(C3CC3)ns2)n1)C(N)=O` [Example 244, (R)-5-(1-amino-3,3-dimethyl-1-oxobutan-2-ylamino)-3-(3-cyclopropylisothiazol-5-ylamino)pyrazine-2-carboxamide] belongs 0.001 to 0.01 µM; to `NC(=O)c1ncc(N[C@@H]2CCCC[C@@H]2N)nc1Nc1snc2ccsc12` [Example 267, 5-((1R,2S)-2-aminocyclohexylamino)-3-(thieno[3,2-c]isothiazol-3-ylamino)pyrazine-2-carboxamide], 0.001 to 0.01 µM.
